One may read the inhibition as the share of the control response that was lost under treatment.

The structures appear in SMILES notation. Active and inactive are the calls of the source. No cut-off for these calls is given here.

Results on 23 compounds are retold here after ChEMBL document CHEMBL4376830, “Diterpenoids and Bisnorditerpenoids from Blumea aromatica” (2019).

In one assay the test system is RAW264.7. The assay can be described thus: Anti-inflammatory activity in LPS-stimulated mouse RAW264.7 cells assessed as reduction in TNF-alpha production at 40 uM by ELISA relative to control. In kind it is functional. On the technique in general: An ELISA detects its analyte on a solid surface through an enzyme-linked reagent.
For `CC1(C)C[C@H](O)C[C@@](C)(O)/C1=C\C(=O)O`, the inhibition at 40 µM was determined as 27.5%.

Turning to `COc1ccc(-c2oc3cc(O)c(OC)c(O)c3c(=O)c2OC)cc1` [SANTIN], the inhibition at 40 µM was found to be 24%.

In the case of `O=C(/C=C/c1ccc(O)c(O)c1)O[C@@H]1[C@H](O)C[C@](O)(C(=O)O)C[C@H]1OC(=O)/C=C/c1ccc(O)c(O)c1`, the inhibition at 40 µM was found to be 15.5%.

The species entered for another assay is Mus musculus. Briefly: Anti-immunosuppressive activity in LPS-activated mouse MDSC assessed as reduction in PD-L1 expression at 20 to 40 uM incubated for 24 hrs by flow cytometry. In kind it is functional. A general note: A flow cytometer gives signals particle by particle.
For `CC(=O)/C=C/[C@H]1[C@](C)(O)[C@@H](O)[C@H](OC(=O)CC(C)C)[C@H]2C(C)(C)CCC[C@@]21C`, the inhibition result was “inactive”.

Turning to `CC(=O)/C=C/[C@H]1[C@](C)(O)[C@@H](O)[C@H](O)[C@H]2C(C)(C)CCC[C@@]21C`, the inhibition result is “inactive”.

On to `C=C/C(C)=C/C[C@H]1[C@](C)(O)[C@@H](O)[C@H](OC(=O)CC(C)C)[C@H]2C(C)(C)CCC[C@@]21C`, for which the inhibition entry is “inactive”.

In the case of `CCCCOC(=O)[C@@]1(O)C[C@@H](O)[C@@H](OC(=O)/C=C/c2ccc(O)c(O)c2)[C@H](OC(=O)/C=C/c2ccc(O)c(O)c2)C1`, the inhibition result is “inactive”.

Take `O=C(/C=C/c1ccc(O)c(O)c1)O[C@@H]1C[C@](OC(=O)/C=C/c2ccc(O)c(O)c2)(C(=O)O)C[C@@H](O)[C@@H]1O`: the inhibition entry is “inactive”.

As to `O=C(/C=C/c1ccc(O)c(O)c1)O[C@@H]1C[C@@](O)(C(=O)O)C[C@@H](O)[C@H]1O`, the inhibition entry is “inactive”.

`CCC(C)/C(=C/C(=O)O)C(=O)O` (stereo unspecified): the inhibition entry was “inactive”.

For `C=CC(=C)[C@@H](O)C[C@H]1[C@](C)(O)[C@@H](O)[C@H](O)[C@H]2C(C)(C)CCC[C@@]21C`, the inhibition entry was “inactive”.

Take `CC(=O)/C=C/[C@H]1[C@](C)(O)[C@@H](O)[C@H](OC(=O)C=C(C)C)[C@H]2C(C)(C)CCC[C@@]21C`: the inhibition result is “inactive”.

Regarding `CC1(C)C[C@H](O)C[C@@](C)(O)/C1=C\C(=O)O`, the inhibition entry is “inactive”.

As for `O=C(/C=C/c1ccc(O)c(O)c1)O[C@@H]1C[C@](O)(C(=O)O)C[C@@H](OC(=O)/C=C/c2ccc(O)c(O)c2)[C@@H]1O`, the inhibition entry is “inactive”.

As to `O=c1c(O[C@@H]2O[C@H](CO)[C@@H](O)[C@H](O)[C@H]2O)c(-c2ccc(O)cc2)oc2cc(O)cc(O)c12`, the inhibition entry is “inactive”.

Regarding `CCC(C)/C(=C/C(=O)O)C(=O)OC` (stereo unspecified), the inhibition entry was “inactive”.

On to `CC[C@H](CC[C@@H](C)[C@H]1CC[C@H]2[C@@H]3CC=C4C[C@@H](O)CC[C@]4(C)[C@H]3CC[C@]12C)C(C)C`, for which the inhibition result is “inactive”.

For the compound `C/C=C(/C)C(=O)O[C@H]1[C@H](O)[C@@](C)(O)[C@H](/C=C/C(C)=O)[C@@]2(C)CCCC(C)(C)[C@H]12`, the inhibition result is “inactive”.

On to `C=C/C(C)=C/C[C@H]1[C@](C)(O)[C@@H](O)[C@H](O)[C@H]2C(C)(C)CCC[C@@]21C`, for which the inhibition entry was “inactive”.

For the compound `COc1ccc(-c2oc3cc(O)c(OC)c(O)c3c(=O)c2OC)cc1` [SANTIN], the inhibition result is “inactive”.

As for `O=C(/C=C/c1ccc(O)c(O)c1)O[C@H]1[C@H](O)C[C@](O)(C(=O)O)C[C@H]1OC(=O)/C=C/c1ccc(O)c(O)c1`, the inhibition result was “inactive”.

For the compound `O=C(/C=C/c1ccc(O)c(O)c1)O[C@@H]1[C@H](O)C[C@](O)(C(=O)O)C[C@H]1OC(=O)/C=C/c1ccc(O)c(O)c1`, the inhibition entry is “inactive”.

With `O=C(O)/C=C/C(=O)O`, the inhibition result was “inactive”.

For `C=CC(=C)[C@H](O)C[C@H]1[C@](C)(O)[C@@H](O)[C@H](O)[C@H]2C(C)(C)CCC[C@@]21C`, the inhibition result is “inactive”.

For `COC(=O)[C@@]1(O)C[C@@H](O)[C@@H](OC(=O)/C=C/c2ccc(O)c(O)c2)[C@H](OC(=O)/C=C/c2ccc(O)c(O)c2)C1`, the inhibition entry was “inactive”.

For `O=Cc1c[nH]c2ccccc12`, the inhibition entry was “inactive”.
